Measurements published in ChEMBL document CHEMBL2062508, “Lasionectrin, a naphthopyrone from a Lasionectria sp” (J Nat Prod, 2012).

Test system: Plasmodium falciparum
Assay: Antiplasmodial activity against Plasmodium falciparum 3D7 infected in human erythrocytes by lactate dehydrogenase assay
Type: functional, organism-based

- IC50: 11 µM
SMILES: CCC[C@@H]1C[C@H]2OC(=O)c3c(cc4cc(OC)cc(O)c4c3O)[C@H]2O1 [LASIONECTRIN]
